Experimental data as given in article PMC12543283, “TastepepAI: An artificial intelligence platform for taste peptide de novo design” (PLOS Computational Biology, 2025).
Ends that are not written are not given here.

What was measured:
[1] = Electronic tongue analysis (Taste-Sensing System SA 402B); design: unit not given here; settings: reference solution 30 mM KCl + 0.3 mM tartaric acid as baseline, first measurement excluded; for Umami: sensor AAE; for Umami / Bitter / Sweet: detection threshold 0, room temperature; for Umami / Bitter / Sour / Salty: four replicates; for Sour: detection threshold -13, room temperature; for Salty: detection threshold -6, room temperature; for Sweet: measured five times
Procedure: Taste characteristics were analyzed using the electronic tongue system E-tongue (Taste-Sensing System SA 402B, Intelligent Sensor Technology Co. Ltd., Japan). The system was equipped with five specific sensor probes for detecting sourness (CA0), saltiness (CT0), bitterness (C00), sweetness (GL1), and umami (AAE). Samples were tested at concentrations of 0.1 mg/mL and 1.0 mg/mL. Prior to experiments, sensors were activated by immersion in a reference solution (30 mM KCl and 0.3 mM tartaric acid) for 24 h. A 30 min self-diagnostic procedure was performed before each measurement to ensure data accuracy. The reference solution served both as a cleaning solution and standard solution for taste signal calibration. According to the manufacturer’s instructions, using the reference solution as baseline, the detection thresholds were set at −13 for sourness, −6 for saltiness, and 0 for other taste modalities. Two cleaning solutions were employed for electrode maintenance: (1) 30% ethanol solution containing 100 mM HCl for negative charge reference electrodes, and (2) 30% ethanol solution containing 100 mM KCl and 10 mM KOH for positive charge reference electrodes. All taste measurements were performed at room temperature with four replicates, except for sweetness which was measured five times. The first measurement data were excluded from analysis.

[2] = system: human bronchial epithelial cells (BEAS-2B)
[3] = system: human embryonic kidney cells (HEK293T)
[4] = system: human pancreatic ductal epithelial cells (HPNE)
[5] = system: human umbilical vein endothelial cells (HUVEC)

Substance | Umami ([1]; peptide 0.1 mg/mL) | Umami ([1]; peptide 1 mg/mL) | Bitter ([1]; sensor C00, peptide 0.1 mg/mL) | Bitter ([1]; sensor C00, peptide 1 mg/mL) | Sour ([1]; sensor CA0, peptide 0.1 mg/mL) | Sour ([1]; sensor CA0, peptide 1 mg/mL) | Salty ([1]; sensor CT0, peptide 0.1 mg/mL) | Salty ([1]; sensor CT0, peptide 1 mg/mL) | Sweet ([1]; sensor GL1, peptide 0.1 mg/mL) | Sweet ([1]; sensor GL1, peptide 1 mg/mL) | Average cell viability, BEAS-2B [2] | Cell viability, BEAS-2B, Data1 [2] | Cell viability, BEAS-2B, Data2 [2] | Cell viability, BEAS-2B, Data3 [2] | Average cell viability, HEK293T [3] | Cell viability, HEK293T, Data1 [3] | Cell viability, HEK293T, Data2 [3] | Cell viability, HEK293T, Data3 [3] | Average cell viability, HPNE [4] | Cell viability, HPNE, Data1 [4] | also measured
AQSSLS [TaPep40] | 2.37 | -3.91 | 7.48 | 3.31 | -5.48 | 10.99 | -19.59 | 10.09 | 10.64 | -5.29 | 101.16 | 116.45 | 94.02 | 93.02 | 100.57 | 103.15 | 101.26 | 97.29 | 106.99 | 100.53 | Cell viability, HPNE, Data2 [4]: 109.02; Cell viability, HPNE, Data3 [4]: 111.41; Average cell viability, HUVEC [5]: 101.30; Cell viability, HUVEC, Data1 [5]: 102.66; Cell viability, HUVEC, Data2 [5]: 110.88; Cell viability, HUVEC, Data3 [5]: 90.37
AWDGQ [TaPep73] | 0.77 | -5.41 | 7.64 | 4.33 | -1.22 | 13.38 | -19.69 | 8.78 | 4.76 | -5.09 | 106.58 | 95.61 | 116.85 | 107.28 | 106.97 | 104.20 | 108.17 | 108.55 | 107.55 | 109.82 | Cell viability, HPNE, Data2 [4]: 117.40; Cell viability, HPNE, Data3 [4]: 95.44; Average cell viability, HUVEC [5]: 105.51; Cell viability, HUVEC, Data1 [5]: 111.28; Cell viability, HUVEC, Data2 [5]: 115.27; Cell viability, HUVEC, Data3 [5]: 89.97
DAAEK [TaPep2] | 1.21 | -4.05 | 7.88 | 2.74 | -2.30 | 12.60 | -19.03 | 13.52 | 6.09 | -5.50 | 107.18 | 116.05 | 111.86 | 93.62 | 92.18 | 95.02 | 84.13 | 97.38 | 105.52 | 116.01 | Cell viability, HPNE, Data2 [4]: 111.51; Cell viability, HPNE, Data3 [4]: 89.05; Average cell viability, HUVEC [5]: 95.40; Cell viability, HUVEC, Data1 [5]: 97.15; Cell viability, HUVEC, Data2 [5]: 96.19; Cell viability, HUVEC, Data3 [5]: 92.84
DAELDK [TaPep34] | 0.43 | -4.87 | 7.62 | 3.25 | -0.52 | 15.34 | -17.51 | 13.63 | 5.08 | -6.74 | 99.04 | 114.56 | 90.63 | 91.92 | 101.89 | 98.04 | 102.49 | 105.14 | 103.89 | 99.83 | Cell viability, HPNE, Data2 [4]: 96.64; Cell viability, HPNE, Data3 [4]: 115.21; Average cell viability, HUVEC [5]: 96.25; Cell viability, HUVEC, Data1 [5]: 90.61; Cell viability, HUVEC, Data2 [5]: 95.80; Cell viability, HUVEC, Data3 [5]: 102.34
DFKEELPK [TaPep42] | 0.30 | -6.40 | 7.41 | 2.96 | -0.03 | 16.30 | -15.26 | 15.72 | 3.04 | -6.66 | 106.12 | 95.21 | 103.99 | 119.14 | 100.35 | 101.45 | 95.30 | 104.29 | 106.29 | 109.92 | Cell viability, HPNE, Data2 [4]: 101.63; Cell viability, HPNE, Data3 [4]: 107.32; Average cell viability, HUVEC [5]: 100.96; Cell viability, HUVEC, Data1 [5]: 109.77; Cell viability, HUVEC, Data2 [5]: 97.95; Cell viability, HUVEC, Data3 [5]: 95.16
DQEPVE [TaPep44] | 0.51 | -6.35 | 7.74 | 3.13 | -0.62 | 14.96 | -19.30 | 10.03 | 3.94 | -11.10 | 101.53 | 108.18 | 97.51 | 98.90 | 102.43 | 105.71 | 98.14 | 103.44 | 105.06 | 112.51 | Cell viability, HPNE, Data2 [4]: 118.30; Cell viability, HPNE, Data3 [4]: 84.36; Average cell viability, HUVEC [5]: 109.31; Cell viability, HUVEC, Data1 [5]: 108.41; Cell viability, HUVEC, Data2 [5]: 112.00; Cell viability, HUVEC, Data3 [5]: 107.53
DQKVLA [TaPep3] | 2.16 | -4.90 | 7.84 | 2.95 | -4.64 | 12.21 | -20.13 | 13.20 | 7.95 | -6.65 | 108.77 | 109.77 | 102.49 | 114.06 | 94.20 | 93.79 | 84.04 | 104.76 | 93.24 | 97.04 | Cell viability, HPNE, Data2 [4]: 98.74; Cell viability, HPNE, Data3 [4]: 83.96; Average cell viability, HUVEC [5]: 98.83; Cell viability, HUVEC, Data1 [5]: 114.40; Cell viability, HUVEC, Data2 [5]: 89.41; Cell viability, HUVEC, Data3 [5]: 92.68
EDGPHGD [TaPep45] | 0.96 | -5.11 | 7.77 | 4.03 | -1.77 | 12.61 | -19.03 | 9.35 | 4.54 | -4.05 | 94.75 | 89.83 | 99.50 | 94.92 | 97.35 | 98.99 | 96.25 | 96.81 | 101.66 | 107.42 | Cell viability, HPNE, Data2 [4]: 100.73; Cell viability, HPNE, Data3 [4]: 96.84; Average cell viability, HUVEC [5]: 98.64; Cell viability, HUVEC, Data1 [5]: 103.46; Cell viability, HUVEC, Data2 [5]: 90.77; Cell viability, HUVEC, Data3 [5]: 101.70
